What was measured:
[1] = system: KRAS G12V-dependent Ba/F3 cells; assay: Ba/F3 proliferation assay, KRAS G12V; format: cell-based; conditions: Mus musculus, BaF3, 72 h, AlamarBlue;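 also: proliferation IC50 in KRAS G12V-dependent Ba/F3 cells read by AlamarBlue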
Summary of the method: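 Transforming KRAS G12 mutants replaced IL-3 dependence in retrovirally engineered Ba/F3 cells, with puromycin omitted about ten days before testing. Growth under compound was quantified with an AlamarBlue fluorescent viability stain, in duplicate, by curve fitting.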

[2] = Caco-2 assay (permeability PappAB, PappBA, efflux ratio); format: in vitro ADME; conditions: human, Caco-2, 10 μM test compound, pH 7.4; for Papp A→B at 90 min, 10 μM: apical to basolateral; for efflux ratio at 90 min, 10 μM: efflux ratio PappBA/PappAB, read-out: Caco ER
Summary of the method: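 Confluent Caco-2 monolayers on filter supports, 0.25% BSA in both donor and receiver buffer; transport measured a-b and b-a. After 25-30 min preincubation at 37 °C, samples at 0, 30, 60, 90 min quantified by HPLC/MS/MS. Papp from receiver amount per time, filter area and initial donor concentration; efflux ratio = PappBA/PappAB.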

Row | Compound | IC50 [1] | Papp A→B at 90 min, 10 μM [2] | efflux ratio at 90 min, 10 μM [2]
1 | C[C@H](Oc1cc(-n2cncn2)nc(-c2onc3c2CCC[C@@]32CCCc3sc(N)c(C#N)c32)n1)[C@@H]1CCCN1C [I-18] | 8 nM | 17 ×10⁻⁶ cm/s | 1.2
2 | C[C@H](Oc1cc(N2CCN(C)C3(CCOC3)C2)nc(-c2noc3c2CCC[C@@]32CCCc3sc(N)c(C#N)c32)n1)[C@@H]1C[C@@H](F)CN1C (some centres unmarked) [II-151] | 655 nM |  | 2
3 | C[C@H](Oc1cc(N2CCOC2=O)nc(-c2noc3c2CCC[C@@]32CCCc3sc(N)c(C#N)c32)n1)[C@@H]1CCCN1C [II-143] | 2 nM | 4.5 ×10⁻⁶ cm/s | 7.3
4 | CO[C@@H]1C[C@@H]([C@H](C)Oc2cc(N3CCN(C)C4(CC4)C3)nc(-c3noc4c3CCC[C@@]43CCCc4sc(N)c(C#N)c43)n2)N(C)C1 [II-152] | 1190 nM | 3.1 ×10⁻⁶ cm/s | 16.8
5 | C[C@H](Oc1cc(N2CCN(C)C3(CC3)C2)nc(-c2noc3c2CCC[C@@]32CCCc3sc(N)c(C#N)c32)n1)[C@@H]1CCCN1C [II-171] | 426 nM | 3 ×10⁻⁶ cm/s | 8.2
6 | C[C@H](Oc1cc(-n2cc(C(=O)N(C)C)nn2)nc(-c2noc3c2CCC[C@@]32CCCc3sc(N)c(C#N)c32)n1)[C@@H]1CCCN1C [II-132] | 6 nM | 6.8 ×10⁻⁶ cm/s | 4.9
7 | C[C@H](Oc1cc(C2=CCNCC2)nc(-c2noc3c2CCC[C@@]32CCCc3sc(N)c(C#N)c32)n1)[C@@H]1CCCN1C [II-164] | 133 nM | 0.1 ×10⁻⁶ cm/s | 138
8 | C[C@H](Oc1cc(-n2cc3c(n2)CCN(C)C3)nc(-c2noc3c2CCC[C@@]32CCCc3sc(N)c(C#N)c32)n1)[C@@H]1CCCN1C [II-141] | 170 nM |  | 7.9
9 | C[C@H](Oc1cc(-n2ccc(C3(O)COC3)n2)nc(-c2noc3c2CCC[C@@]32CCCc3sc(N)c(C#N)c32)n1)[C@@H]1CCCN1C [II-189] | 8 nM | 7.9 ×10⁻⁶ cm/s | 5.8
10 | C[C@H](Oc1cc(-n2cncc3ccnc2-3)nc(-c2onc3c2CCC[C@@]32CCCc3sc(N)c(C#N)c32)n1)[C@@H]1CCCN1C [I-14] | 7 nM |  | 0.8
11 | CO[C@H]1CCN(C)[C@@H]1[C@H](C)Oc1cc(-n2ccc(C(N)=O)n2)nc(-c2noc3c2CCC[C@@]32CCCc3sc(N)c(C#N)c32)n1 [II-201] | 1 nM | 18 ×10⁻⁶ cm/s | 1.8
12 | C[C@H](Oc1cc(N2CCNC[C@]23CCOC3)nc(-c2onc3c2CCC[C@@]32CCCc3sc(N)c(C#N)c32)n1)[C@@H]1CCCN1C [I-12] | 343 nM | 0.5 ×10⁻⁶ cm/s | 70.2
13 | C[C@H](Oc1cc(N2CCNC3(CC3)C2)nc(-c2noc3c2CCC[C@@]32CCCc3sc(N)c(C#N)c32)n1)[C@@H]1C[C@@H](F)CN1C [II-165] | 121 nM |  | 2.5
14 | C[C@H](Oc1cc(N2CCN(C)C3(COC3)C2)nc(-c2noc3c2CCC[C@@]32CCCc3sc(N)c(C#N)c32)n1)[C@@H]1C[C@@H](F)CN1C [II-148] | 162 nM | 12 ×10⁻⁶ cm/s | 3.3
